Legend:
mGlu2 = mGlu2 (Rattus norvegicus (Rat), UniProt P31421); assay: mGlu2 GIRK thallium flux assay; settings: for EC50: read-out: mGlu2 PAM EC50, test compound, then EC20 glutamate […] later in the presence of thallium; for Emax: read-out: mGlu2 PAM Max;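 as to all read-outs here: Cell-based assay, rate of fluorescence rise right after thallium plus agonist addition read on a kinetic imaging plate reader, normalized to vehicle and maximal agonist control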
mGlu3 = mGlu3 (Rattus norvegicus (Rat), UniProt P31422); assay: mGlu3 GIRK thallium flux assay; settings: for EC50: read-out: mGlu3 PAM EC50, test compound, then EC20 glutamate […] later in the presence of thallium; for Emax: read-out: mGlu3 PAM Max;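 as to all read-outs here: kinetic fluorescence slope read shortly after thallium plus agonist addition, scaled between vehicle and maximal agonist control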
[1] = PAM mode, mean ± SEM, at least three experiments

Sequence of mGlu3 (P31422 23-879): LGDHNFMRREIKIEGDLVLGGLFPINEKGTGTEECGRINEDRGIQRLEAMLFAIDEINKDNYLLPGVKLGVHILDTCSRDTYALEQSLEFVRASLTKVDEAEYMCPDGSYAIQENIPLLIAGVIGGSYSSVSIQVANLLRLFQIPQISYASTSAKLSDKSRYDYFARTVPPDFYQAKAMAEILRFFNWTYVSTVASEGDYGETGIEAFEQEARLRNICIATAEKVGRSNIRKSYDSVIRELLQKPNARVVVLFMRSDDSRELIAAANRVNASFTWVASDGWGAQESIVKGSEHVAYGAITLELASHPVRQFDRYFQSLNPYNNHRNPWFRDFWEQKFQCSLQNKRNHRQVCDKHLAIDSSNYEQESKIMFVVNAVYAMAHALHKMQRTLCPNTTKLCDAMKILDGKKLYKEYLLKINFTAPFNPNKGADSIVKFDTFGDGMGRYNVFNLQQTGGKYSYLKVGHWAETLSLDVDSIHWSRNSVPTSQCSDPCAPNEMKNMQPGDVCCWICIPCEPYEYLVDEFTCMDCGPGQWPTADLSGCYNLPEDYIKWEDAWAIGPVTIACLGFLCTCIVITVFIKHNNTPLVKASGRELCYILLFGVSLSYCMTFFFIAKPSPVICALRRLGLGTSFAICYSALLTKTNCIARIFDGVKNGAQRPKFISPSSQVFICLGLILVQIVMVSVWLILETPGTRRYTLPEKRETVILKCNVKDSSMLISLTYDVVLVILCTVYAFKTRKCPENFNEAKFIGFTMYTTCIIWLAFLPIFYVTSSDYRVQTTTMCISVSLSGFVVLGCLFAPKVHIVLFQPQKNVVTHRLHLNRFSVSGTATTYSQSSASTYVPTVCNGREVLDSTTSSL
Sequence of mGlu2 (P31421 19-872): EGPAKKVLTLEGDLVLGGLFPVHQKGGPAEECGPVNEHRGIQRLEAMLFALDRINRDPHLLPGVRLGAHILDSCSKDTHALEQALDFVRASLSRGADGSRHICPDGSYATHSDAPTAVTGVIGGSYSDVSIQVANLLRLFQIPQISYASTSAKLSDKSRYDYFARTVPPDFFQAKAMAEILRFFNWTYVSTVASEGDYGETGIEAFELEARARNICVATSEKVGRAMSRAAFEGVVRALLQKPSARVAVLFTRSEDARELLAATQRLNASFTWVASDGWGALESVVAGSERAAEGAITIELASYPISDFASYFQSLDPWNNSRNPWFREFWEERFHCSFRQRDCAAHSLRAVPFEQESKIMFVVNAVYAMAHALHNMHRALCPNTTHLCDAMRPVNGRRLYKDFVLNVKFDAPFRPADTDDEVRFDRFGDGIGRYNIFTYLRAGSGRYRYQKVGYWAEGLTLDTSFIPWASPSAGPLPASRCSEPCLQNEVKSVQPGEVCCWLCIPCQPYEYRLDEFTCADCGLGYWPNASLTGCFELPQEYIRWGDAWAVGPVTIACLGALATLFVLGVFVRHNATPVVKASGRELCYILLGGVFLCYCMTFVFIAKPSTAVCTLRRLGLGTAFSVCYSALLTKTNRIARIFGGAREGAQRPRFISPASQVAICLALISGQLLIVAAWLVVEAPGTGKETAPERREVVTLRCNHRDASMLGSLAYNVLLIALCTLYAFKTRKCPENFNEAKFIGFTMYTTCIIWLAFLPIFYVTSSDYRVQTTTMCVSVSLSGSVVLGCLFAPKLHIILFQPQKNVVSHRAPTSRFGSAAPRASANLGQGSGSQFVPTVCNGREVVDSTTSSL

| Compound | EC50 (mGlu2; [1]) | Emax (mGlu2) | EC50 (mGlu3; PAM mode, mean ± SEM) | Emax (mGlu3) | mGlu2 PAM Max (mGlu2; PAM mode, % Glutamate Max, mean ± SEM, at least three experiments) | mGlu3 PAM Max (mGlu3; PAM mode, % Glutamate Max, mean ± SEM) |
| --- | --- | --- | --- | --- | --- | --- |
| Cc1c(OCc2cccc(-c3cccc(C(=O)O)c3)c2)ccc(C(=O)CC(C)(C)C)c1O [compound 127, 3′-((4-(3,3-Dimethylbutanoyl)-3-hydroxy-2-methylphenoxy)methyl)-[1,1′-biphenyl]-3-carboxylic acid] | 219 ± 43 nM | 91.1 ± 2.6% | 343 ± 40 nM | 104 ± 2.4% | – | – |
| CC(=O)c1ccc(OCc2cccc(-c3cccc(C(=O)O)c3)c2)c(C)c1O [compound 128, 3′-((4-Acetyl-3-hydroxy-2-methylphenoxy)methyl)-[1,1′-biphenyl]-3-carboxylic acid] | 35 ± 13 nM | 57.9 ± 6.6% | 1290 ± 781 nM | 67.8 ± 8.7% | – | – |
| Cc1c(OCc2cccc(-c3cccc(C(=O)O)c3)c2)ccc(C(=O)CC2CCCC2)c1O [compound 129, 3′-((4-(2-Cyclopentylacetyl)-3-hydroxy-2-methylphenoxy)methyl)-[1,1′-biphenyl]-3-carboxylic acid] | 616 ± 217 nM | 97.5 ± 9% | 3560 ± 1940 nM | 94 ± 10.1% | – | – |
| CCCC(=O)c1ccc(OCc2cccc(-c3cccc(C(=O)O)c3)c2)c(C)c1O [compound 130, 3′-((4-Butyryl-3-hydroxy-2-methylphenoxy)methyl)-[1,1′-biphenyl]-3-carboxylic acid] | 142 ± 29 nM | 92.9 ± 10.7% | 1680 ± 753 nM | 81 ± 14.8% | – | – |
| Cc1c(OCc2cccc(-c3cccc(C(=O)O)c3)c2)ccc(C(=O)C(C)C)c1O [compound 131, 3′-((3-Hydroxy-4-isobutyryl-2-methylphenoxy)methyl)-[1,1′-biphenyl]-3-carboxylic acid] | 222 ± 82 nM | 83.2 ± 12.3% | 1750 ± 891 nM | 55 ± 24.4% | – | – |
| Cc1c(OCc2cccc(-c3ccc(C(=O)O)cc3)c2)ccc(C(=O)CC(C)(C)C)c1O [compound 132, 3′-((4-(3,3-Dimethylbutanoyl)-3-hydroxy-2-methylphenoxy)methyl)-[1,1′-biphenyl]-4-carboxylic acid] | 561 ± 63 nM | 90.5 ± 13.8% | 1640 ± 487 nM | 57.5 ± 20.9% | – | – |
| Cc1c(OCc2cccc(-c3ccc(Cl)c(C(=O)O)c3)c2)ccc(C(=O)CC(C)(C)C)c1O [compound 133, 4-Chloro-3′-((4-(3,3-dimethylbutanoyl)-3-hydroxy-2-methylphenoxy)methyl)-[1,1′-biphenyl]-3-carboxylic acid] | 433 ± 99 nM | 90.2 ± 4.1% | 1710 ± 888 nM | 70.9 ± 3.6% | – | – |
| COc1ccc(C(=O)O)cc1-c1cccc(COc2ccc(C(=O)CC(C)(C)C)c(O)c2C)c1 [compound 134, 3′-((4-(3,3-Dimethylbutanoyl)-3-hydroxy-2-methylphenoxy)methyl)-6-methoxy-[1,1′-biphenyl]-3-carboxylic acid] | 118 ± 2 nM | 89.6 ± 2.9% | 324 ± 94 nM | 76.4 ± 5.4% | – | – |
| Cc1c(OCc2cccc(-c3ccc(F)c(C(=O)O)c3)c2)ccc(C(=O)CC(C)(C)C)c1O [compound 135, 3′-((4-(3,3-Dimethylbutanoyl)-3-hydroxy-2-methylphenoxy)methyl)-4-fluoro-[1,1′-biphenyl]-3-carboxylic acid] | 208 ± 20 nM | 88.5 ± 3.8% | 587 ± 129 nM | 74.4 ± 5% | – | – |
| Cc1c(OCc2cccc(-c3cc(F)cc(C(=O)O)c3)c2)ccc(C(=O)CC(C)(C)C)c1O [compound 136, 3′-((4-(3,3-Dimethylbutanoyl)-3-hydroxy-2-methylphenoxy)methyl)-5-fluoro-[1,1′-biphenyl]-3-carboxylic acid] | 308 ± 40 nM | 93.3 ± 2.1% | 496 ± 86 nM | 77.4 ± 7.1% | – | – |
| Cc1c(OCc2cccc(-c3cccc(C(=O)O)c3)c2)ccc(C(=O)CC(C)C)c1O [compound 137, 3′-((3-Hydroxy-2-methyl-4-(3-methylbutanoyl)phenoxy)methyl)-[1,1′-biphenyl]-3-carboxylic acid] | 181 ± 28 nM | 85.8 ± 3.7% | 642 ± 151 nM | 76.8 ± 8% | – | – |
| Cc1c(OCc2cccc(-c3ccccc3C(=O)O)c2)ccc(C(=O)CC(C)(C)C)c1O [compound 138, 3′-((4-(3,3-Dimethylbutanoyl)-3-hydroxy-2-methylphenoxy)methyl)-[1,1′-biphenyl]-2-carboxylic acid] | 643 ± 137 nM | 42.1 ± 7.1% | > 10000 nM | 23.5 ± 4.6% | – | – |
| Cc1c(OCc2cccc(-c3cc(C(=O)O)ccc3F)c2)ccc(C(=O)CC(C)(C)C)c1O [compound 139, 3′-((4-(3,3-Dimethylbutanoyl)-3-hydroxy-2-methylphenoxy)methyl)-6-fluoro-[1,1′-biphenyl]-3-carboxylic acid] | 436 ± 84 nM | 88.2 ± 5.1% | 1100 ± 330 nM | 85.6 ± 5.5% | – | – |
| COc1ccc(-c2cccc(COc3ccc(C(=O)CC(C)(C)C)c(O)c3C)c2)cc1C(=O)O [compound 140, 3′-((4-(3,3-Dimethylbutanoyl)-3-hydroxy-2-methylphenoxy)methyl)-4-methoxy-[1,1′-biphenyl]-3-carboxylic acid] | 489 ± 73 nM | 86.1 ± 6.1% | 8410 ± 4840 nM | 67.2 ± 13.3% | – | – |
| Cc1c(OCc2cccc(-c3ccc(C(=O)O)c(Cl)c3)c2)ccc(C(=O)CC(C)(C)C)c1O [compound 141, 3-Chloro-3′-((4-(3,3-dimethylbutanoyl)-3-hydroxy-2-methylphenoxy)methyl)-[1,1′-biphenyl]-4-carboxylic acid] | 391 ± 103 nM | 67 ± 6.4% | 656 ± 265 nM | 54.9 ± 9.7% | – | – |
| Cc1c(OCc2ccc(-c3cccc(C(=O)O)c3)cc2)ccc(C(=O)CC(C)(C)C)c1O [compound 142, 4′-((4-(3,3-Dimethylbutanoyl)-3-hydroxy-2-methylphenoxy)methyl)-[1,1′-biphenyl]-3-carboxylic acid] | 3180 ± 626 nM | 97.1 ± 8.2% | 2200 ± 753 nM | 88.7 ± 9.5% | – | – |
| Cc1cc(-c2cccc(COc3ccc(C(=O)CC(C)(C)C)c(O)c3C)c2)ccc1C(=O)O [compound 143, 3′-((4-(3,3-Dimethylbutanoyl)-3-hydroxy-2-methylphenoxy)methyl)-3-methyl-[1,1′-biphenyl]-4-carboxylic acid] | 571 ± 138 nM | 87 ± 11.7% | 3060 ± 624 nM | 78.3 ± 21.1% | – | – |
| Cc1c(OCc2cccc(-c3ccc(O)c(C(=O)O)c3)c2)ccc(C(=O)CC(C)(C)C)c1O [compound 144, 3′-((4-(3,3-dimethylbutanoyl)-3-hydroxy-2-methylphenoxy)methyl)-4-hydroxy-[1,1′-biphenyl]-3-carboxylic acid] | 232 ± 16 nM | 59.6 ± 4% | 701 ± 176 nM | 46.9 ± 5.6% | – | – |
| Cc1c(OCc2cccc(-c3cccc(CC(=O)O)c3)c2)ccc(C(=O)CC(C)(C)C)c1O [compound 145, 2-(3′-((4-(3,3-dimethylbutanoyl)-3-hydroxy-2-methylphenoxy)methyl)-[1,1′-biphenyl]-3-yl)acetic acid] | 1360 ± 259 nM | 93.4 ± 11.4% | 3940 ± 1320 nM | 79.1 ± 15% | – | – |
| Cc1c(OCc2cccc(-c3cc(C(=O)O)cc([N+](=O)[O-])c3)c2)ccc(C(=O)CC(C)(C)C)c1O [compound 146, 3′-((4-(3,3-Dimethylbutanoyl)-3-hydroxy-2-methylphenoxy)methyl)-5-nitro-[1,1′-biphenyl]-3-carboxylic acid] | 564 ± 156 nM | 98.7 ± 5.9% | 2130 ± 812 nM | 74.5 ± 11.7% | – | – |
| Cc1c(OCc2cccc(-c3ccc(C(=O)O)cc3Cl)c2)ccc(C(=O)CC(C)(C)C)c1O [compound 147, 2-Chloro-3′-((4-(3,3-dimethylbutanoyl)-3-hydroxy-2-methylphenoxy)methyl)-[1,1′-biphenyl]-4-carboxylic acid] | 460 ± 158 nM | 98.6 ± 5.7% | 2280 ± 827 nM | 81.4 ± 9.7% | – | – |
| Cc1c(OCc2cccc(-c3cccc(C(=O)O)c3)c2)ccc(C(=O)CCC(C)(C)C)c1O [compound 148] | 2110 ± 215 nM | – | 2580 ± 272 nM | – | 100 ± 3.9% | 101.7 ± 2.7% |
| Cc1c(OCc2ccnc(-c3cccc(C(=O)O)c3)c2)ccc(C(=O)CC(C)(C)C)c1O [compound 149, 3-(4-((4-(3,3-Dimethylbutanoyl)-3-hydroxy-2-methylphenoxy)methyl)pyridin-2-yl)benzoic acid] | 230 ± 2 nM | 108 ± 1.2% | 203 ± 1 nM | 112 ± 3.8% | – | – |
| Cc1c(OCc2cncc(-c3cccc(C(=O)O)c3)c2)ccc(C(=O)CC(C)(C)C)c1O [compound 150, 3-(5-((4-(3,3-Dimethylbutanoyl)-3-hydroxy-2-methylphenoxy)methyl)pyridin-3-yl)benzoic acid] | 345 ± 2 nM | 107 ± 2.6% | 345 ± 9 nM | 107 ± 6.3% | – | – |
| Cc1c(OCc2cccc(-c3cccc(C#N)c3)c2)ccc(C(=O)CC(C)(C)C)c1O [compound 151, 3′-((4-(3,3-Dimethylbutanoyl)-3-hydroxy-2-methylphenoxy)methyl)-[1,1′-biphenyl]-3-carbonitrile] | > 10000 nM | 50.2 ± 7.4% | > 10000 nM | 35.5 ± 3.8% | – | – |
| Cc1c(OCc2cccc(-c3cccc(-c4nn[nH]n4)c3)c2)ccc(C(=O)CC(C)(C)C)c1O [compound 152, 1-(4-((3′-(2H-Tetrazol-5-yl)-[1,1′-biphenyl]-3-yl)methoxy)-2-hydroxy-3-methylphenyl)-3,3-dimethylbutan-1-one] | – | 103 ± 1.8% | – | 98.9 ± 3.7% | – | – |
| Cc1c(OCc2cc(-c3cccc(C(=O)O)c3)ccn2)ccc(C(=O)CC(C)(C)C)c1O [compound 153, 3-(2-((4-(3,3-Dimethylbutanoyl)-3-hydroxy-2-methylphenoxy)methyl)pyridin-4-yl)benzoic acid] | 209 ± 3 nM | 106 ± 3.9% | 158 ± 2 nM | 107 ± 5.5% | – | – |
| Cc1c(OCc2cccc(COc3ccc(C#N)cc3)c2)ccc(C(=O)CC2CCCC2)c1C [compound 154] | > 30000 nM | – | > 30000 nM | – | – | – |

Reference: patent publication US10099993B2, “Metabotropic glutamate receptor positive allosteric modulators (PAMS) and uses thereof” (Sanford-Burnham Medical Research Institute, priority 2014, dated 2018)
